{"source": "patent US11253517B2", "about": "“Small molecule regulators of steroid receptor coactivators and methods of use thereof” (BAYLOR COLLEGE OF MEDICINE, priority 2016, dated 2022)", "experiment_in_all_cases": "Kinase-Glo Luminescent Kinase Assay", "assay_type_in_all_cases": "biochemical", "key": {"[1]": {"target": "T1, MAPKAPK2 (Homo sapiens, UniProt P49137)", "T1 construct": "purchased Promega", "T1 sequence (P49137 whole entry)": "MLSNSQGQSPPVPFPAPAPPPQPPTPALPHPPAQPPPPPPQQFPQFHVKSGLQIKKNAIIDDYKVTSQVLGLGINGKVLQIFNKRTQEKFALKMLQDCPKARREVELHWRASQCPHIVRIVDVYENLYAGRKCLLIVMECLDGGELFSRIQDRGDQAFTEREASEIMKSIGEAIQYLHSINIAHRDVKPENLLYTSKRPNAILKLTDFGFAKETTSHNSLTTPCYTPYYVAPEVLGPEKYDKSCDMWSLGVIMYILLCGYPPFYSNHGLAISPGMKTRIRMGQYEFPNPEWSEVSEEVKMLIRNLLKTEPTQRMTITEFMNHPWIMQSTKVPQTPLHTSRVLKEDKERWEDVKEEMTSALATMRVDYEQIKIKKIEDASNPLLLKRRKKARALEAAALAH", "description": "(§1) SI-12 was also tested for its ability to disrupt kinase activity. The effects of the compound were tested on a panel of 24 kinases using a Kinase-Glo Luminescent Kinase Assay system (Promega; Madison, Wis.). SI-12 was tested, at concentrations of 1000 nM, 50 nM, and 5 nM, for its ability to interfere with recombinant kinases in the assay system. The amount of ATP to ADP conversion in the presence of SI-12 was compared to a DMSO vehicle control. The values shown in Table 3 represent the percentage of kinase activity compared to a DMSO vehicle control.\n(§2) In Table 3, “−” represents less than 20% inhibition; “+” represents from 20% to 40% inhibition; “++” represents from 40% to 60% inhibition; and “+++” represents greater than 60% inhibition."}, "[2]": {"target": "T2, CDK2/CyclinE1 (Homo sapiens, UniProt P24941)", "T2 construct": "purchased Promega", "description": "as §1, §2"}, "[3]": {"target": "T3, Aurora A (Homo sapiens, UniProt O14965)", "T3 construct": "purchased Promega", "T3 sequence (O14965 1-403)": "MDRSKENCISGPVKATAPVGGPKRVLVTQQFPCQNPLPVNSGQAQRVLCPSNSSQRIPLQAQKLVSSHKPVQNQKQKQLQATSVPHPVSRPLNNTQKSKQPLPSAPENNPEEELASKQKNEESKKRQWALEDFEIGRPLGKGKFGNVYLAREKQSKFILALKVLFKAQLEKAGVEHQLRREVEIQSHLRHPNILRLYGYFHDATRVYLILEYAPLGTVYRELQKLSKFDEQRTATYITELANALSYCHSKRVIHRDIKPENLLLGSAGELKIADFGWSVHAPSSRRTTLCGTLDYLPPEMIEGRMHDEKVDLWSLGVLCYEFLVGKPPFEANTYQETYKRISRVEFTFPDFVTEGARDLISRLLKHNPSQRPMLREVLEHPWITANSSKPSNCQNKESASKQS", "description": "as §1, §2"}, "[4]": {"target": "T4, PAK1/CDC42 (Homo sapiens, UniProt Q13153)", "T4 construct": "purchased Promega", "T4 sequence (Q13153 whole entry)": "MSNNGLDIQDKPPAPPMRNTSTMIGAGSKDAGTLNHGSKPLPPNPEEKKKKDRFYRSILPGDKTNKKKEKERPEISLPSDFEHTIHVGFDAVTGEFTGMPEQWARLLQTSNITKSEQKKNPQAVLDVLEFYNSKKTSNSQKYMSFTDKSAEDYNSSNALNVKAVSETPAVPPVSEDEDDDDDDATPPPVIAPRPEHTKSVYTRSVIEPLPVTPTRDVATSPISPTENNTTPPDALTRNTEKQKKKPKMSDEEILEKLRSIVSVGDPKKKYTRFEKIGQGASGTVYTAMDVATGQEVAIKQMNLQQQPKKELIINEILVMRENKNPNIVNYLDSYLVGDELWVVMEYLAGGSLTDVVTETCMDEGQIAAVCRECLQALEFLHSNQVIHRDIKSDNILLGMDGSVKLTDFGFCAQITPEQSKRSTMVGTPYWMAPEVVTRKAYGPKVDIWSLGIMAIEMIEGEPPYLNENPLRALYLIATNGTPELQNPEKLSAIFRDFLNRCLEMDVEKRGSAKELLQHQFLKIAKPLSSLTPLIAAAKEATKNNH", "description": "as §1, §2"}, "[5]": {"target": "T5, PKCa (Homo sapiens, UniProt P17252)", "T5 construct": "purchased Promega", "description": "as §1, §2"}, "[6]": {"target": "T6, JAK3 (Homo sapiens, UniProt P52333)", "T6 construct": "purchased Promega", "T6 sequence (P52333 1-1124)": "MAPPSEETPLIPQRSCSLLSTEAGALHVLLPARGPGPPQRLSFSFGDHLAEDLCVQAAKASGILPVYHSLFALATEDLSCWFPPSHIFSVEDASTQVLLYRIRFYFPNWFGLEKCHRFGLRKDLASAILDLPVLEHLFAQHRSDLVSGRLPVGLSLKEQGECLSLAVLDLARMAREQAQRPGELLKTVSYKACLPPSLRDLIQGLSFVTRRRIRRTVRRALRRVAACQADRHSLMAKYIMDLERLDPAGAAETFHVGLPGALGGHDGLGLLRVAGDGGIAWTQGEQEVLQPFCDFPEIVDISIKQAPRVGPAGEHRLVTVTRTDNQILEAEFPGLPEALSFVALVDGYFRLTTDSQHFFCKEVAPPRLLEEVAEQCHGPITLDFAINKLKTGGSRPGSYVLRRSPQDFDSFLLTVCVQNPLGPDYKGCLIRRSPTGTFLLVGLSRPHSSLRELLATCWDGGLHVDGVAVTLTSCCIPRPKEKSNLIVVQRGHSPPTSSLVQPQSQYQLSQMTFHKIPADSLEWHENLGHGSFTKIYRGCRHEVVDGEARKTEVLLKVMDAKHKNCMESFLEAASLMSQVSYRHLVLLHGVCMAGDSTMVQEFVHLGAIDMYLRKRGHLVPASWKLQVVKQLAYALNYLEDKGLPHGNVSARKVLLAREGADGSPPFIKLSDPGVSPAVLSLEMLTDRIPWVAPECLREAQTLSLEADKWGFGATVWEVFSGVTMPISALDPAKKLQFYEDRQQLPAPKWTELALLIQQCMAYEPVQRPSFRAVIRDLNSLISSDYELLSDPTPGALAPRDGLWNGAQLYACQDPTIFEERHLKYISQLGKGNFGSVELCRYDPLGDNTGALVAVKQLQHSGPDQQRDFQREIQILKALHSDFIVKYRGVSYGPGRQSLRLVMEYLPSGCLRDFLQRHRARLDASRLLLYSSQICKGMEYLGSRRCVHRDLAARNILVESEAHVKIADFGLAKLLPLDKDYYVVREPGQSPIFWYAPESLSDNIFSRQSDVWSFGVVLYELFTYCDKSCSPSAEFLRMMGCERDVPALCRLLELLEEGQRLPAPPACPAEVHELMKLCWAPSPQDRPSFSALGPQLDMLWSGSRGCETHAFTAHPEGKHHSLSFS", "description": "as §1, §2"}, "[7]": {"target": "T7, GSK3B (Homo sapiens, UniProt P49841)", "T7 construct": "purchased Promega", "T7 sequence (P49841 whole entry)": "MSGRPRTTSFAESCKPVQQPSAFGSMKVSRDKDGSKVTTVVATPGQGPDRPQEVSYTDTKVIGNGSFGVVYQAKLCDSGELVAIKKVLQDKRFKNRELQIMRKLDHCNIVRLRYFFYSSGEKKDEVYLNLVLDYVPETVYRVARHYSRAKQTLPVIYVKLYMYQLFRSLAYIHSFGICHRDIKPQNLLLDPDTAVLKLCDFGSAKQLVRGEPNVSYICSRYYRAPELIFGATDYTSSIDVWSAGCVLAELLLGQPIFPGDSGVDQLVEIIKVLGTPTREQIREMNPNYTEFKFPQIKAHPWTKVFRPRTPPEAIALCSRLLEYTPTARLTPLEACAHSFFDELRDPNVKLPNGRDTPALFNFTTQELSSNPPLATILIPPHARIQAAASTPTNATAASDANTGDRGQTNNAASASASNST", "description": "as §1, §2"}, "[8]": {"target": "T8, MINK1 (Homo sapiens, UniProt Q8N4C8)", "T8 construct": "purchased Promega", "T8 sequence (Q8N4C8 whole entry)": "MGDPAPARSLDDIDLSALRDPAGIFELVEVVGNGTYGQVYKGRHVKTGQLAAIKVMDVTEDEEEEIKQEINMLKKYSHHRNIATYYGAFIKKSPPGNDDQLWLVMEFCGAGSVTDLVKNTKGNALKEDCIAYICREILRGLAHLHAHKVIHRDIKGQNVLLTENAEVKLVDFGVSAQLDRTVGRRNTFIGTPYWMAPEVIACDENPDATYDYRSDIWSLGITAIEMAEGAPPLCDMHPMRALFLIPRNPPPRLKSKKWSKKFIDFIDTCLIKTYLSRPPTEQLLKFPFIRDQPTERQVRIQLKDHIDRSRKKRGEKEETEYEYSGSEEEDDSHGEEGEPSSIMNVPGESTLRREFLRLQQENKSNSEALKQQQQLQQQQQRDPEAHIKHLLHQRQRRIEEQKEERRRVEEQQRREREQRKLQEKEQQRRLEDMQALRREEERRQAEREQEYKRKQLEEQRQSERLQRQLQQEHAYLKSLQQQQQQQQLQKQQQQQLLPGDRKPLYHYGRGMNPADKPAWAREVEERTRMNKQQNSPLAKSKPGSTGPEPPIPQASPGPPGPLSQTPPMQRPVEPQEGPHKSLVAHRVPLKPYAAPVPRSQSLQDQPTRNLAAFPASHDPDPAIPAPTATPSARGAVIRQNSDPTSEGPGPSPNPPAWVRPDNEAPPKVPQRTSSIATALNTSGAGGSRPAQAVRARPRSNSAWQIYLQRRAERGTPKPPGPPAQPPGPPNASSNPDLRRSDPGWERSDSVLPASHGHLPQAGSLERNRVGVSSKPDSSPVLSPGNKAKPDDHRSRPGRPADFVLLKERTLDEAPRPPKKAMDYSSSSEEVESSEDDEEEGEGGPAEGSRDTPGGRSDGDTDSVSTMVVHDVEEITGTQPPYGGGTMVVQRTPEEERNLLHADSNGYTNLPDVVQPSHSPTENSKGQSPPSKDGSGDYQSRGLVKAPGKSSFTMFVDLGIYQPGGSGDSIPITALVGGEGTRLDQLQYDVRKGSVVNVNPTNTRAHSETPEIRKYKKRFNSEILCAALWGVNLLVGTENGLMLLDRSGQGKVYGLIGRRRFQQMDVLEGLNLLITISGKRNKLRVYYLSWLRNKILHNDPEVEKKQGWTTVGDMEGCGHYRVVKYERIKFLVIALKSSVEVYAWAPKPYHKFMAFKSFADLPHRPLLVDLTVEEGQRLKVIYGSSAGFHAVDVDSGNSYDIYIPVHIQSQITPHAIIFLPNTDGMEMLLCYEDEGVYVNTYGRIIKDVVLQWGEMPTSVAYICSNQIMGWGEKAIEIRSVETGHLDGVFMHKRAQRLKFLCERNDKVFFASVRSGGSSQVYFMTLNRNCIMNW", "description": "as §1, §2"}, "[9]": {"target": "T9, CK1a 1 (Homo sapiens, UniProt P48729)", "T9 construct": "purchased Promega", "T9 sequence (P48729 whole entry)": "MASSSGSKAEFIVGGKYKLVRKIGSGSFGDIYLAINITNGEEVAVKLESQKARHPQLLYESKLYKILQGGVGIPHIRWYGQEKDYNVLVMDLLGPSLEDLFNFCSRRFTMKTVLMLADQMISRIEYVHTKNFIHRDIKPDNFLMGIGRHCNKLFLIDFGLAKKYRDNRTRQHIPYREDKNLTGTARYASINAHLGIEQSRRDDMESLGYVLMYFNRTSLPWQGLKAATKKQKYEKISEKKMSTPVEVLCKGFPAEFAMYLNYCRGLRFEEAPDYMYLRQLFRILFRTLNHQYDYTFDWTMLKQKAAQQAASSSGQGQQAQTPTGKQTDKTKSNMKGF", "description": "as §1, §2"}, "[10]": {"target": "T10, SYK (Homo sapiens, UniProt P43405)", "T10 construct": "purchased Promega", "description": "as §1, §2"}}}
{"smiles": "CC(=NNc1nc2cc(F)c(F)cc2n1C)c1ccc(F)cn1", "note": "[SI-12]", "values": [{"measurement": "MAPKAPK2 kinase inhibition", "setting": "[1]; 5 nM", "result": "− (less than 20% inhibition)"}, {"measurement": "MAPKAPK2 kinase inhibition", "setting": "[1]; 50 nM", "result": "− (less than 20% inhibition)"}, {"measurement": "MAPKAPK2 kinase inhibition", "setting": "[1]; 1000 nM", "result": "− (less than 20% inhibition)"}, {"measurement": "CDK2/CyclinE1 kinase inhibition", "setting": "[2]; 5 nM", "result": "− (less than 20% inhibition)"}, {"measurement": "CDK2/CyclinE1 kinase inhibition", "setting": "[2]; 50 nM", "result": "− (less than 20% inhibition)"}, {"measurement": "CDK2/CyclinE1 kinase inhibition", "setting": "[2]; 1000 nM", "result": "− (less than 20% inhibition)"}, {"measurement": "Aurora A kinase inhibition", "setting": "[3]; 5 nM", "result": "− (less than 20% inhibition)"}, {"measurement": "Aurora A kinase inhibition", "setting": "[3]; 50 nM", "result": "− (less than 20% inhibition)"}, {"measurement": "Aurora A kinase inhibition", "setting": "[3]; 1000 nM", "result": "− (less than 20% inhibition)"}, {"measurement": "PAK1/CDC42 kinase inhibition", "setting": "[4]; 5 nM", "result": "− (less than 20% inhibition)"}, {"measurement": "PAK1/CDC42 kinase inhibition", "setting": "[4]; 50 nM", "result": "− (less than 20% inhibition)"}, {"measurement": "PAK1/CDC42 kinase inhibition", "setting": "[4]; 1000 nM", "result": "− (less than 20% inhibition)"}, {"measurement": "PKCa kinase inhibition", "setting": "[5]; 5 nM", "result": "− (less than 20% inhibition)"}, {"measurement": "PKCa kinase inhibition", "setting": "[5]; 50 nM", "result": "− (less than 20% inhibition)"}, {"measurement": "PKCa kinase inhibition", "setting": "[5]; 1000 nM", "result": "− (less than 20% inhibition)"}, {"measurement": "JAK3 kinase inhibition", "setting": "[6]; 5 nM", "result": "− (less than 20% inhibition)"}, {"measurement": "JAK3 kinase inhibition", "setting": "[6]; 50 nM", "result": "+ (from 20% to 40% inhibition)"}, {"measurement": "JAK3 kinase inhibition", "setting": "[6]; 1000 nM", "result": "+ (from 20% to 40% inhibition)"}, {"measurement": "GSK3B kinase inhibition", "setting": "[7]; 5 nM", "result": "− (less than 20% inhibition)"}, {"measurement": "GSK3B kinase inhibition", "setting": "[7]; 50 nM", "result": "− (less than 20% inhibition)"}, {"measurement": "GSK3B kinase inhibition", "setting": "[7]; 1000 nM", "result": "− (less than 20% inhibition)"}, {"measurement": "MINK1 kinase inhibition", "setting": "[8]; 5 nM", "result": "− (less than 20% inhibition)"}, {"measurement": "MINK1 kinase inhibition", "setting": "[8]; 50 nM", "result": "− (less than 20% inhibition)"}, {"measurement": "MINK1 kinase inhibition", "setting": "[8]; 1000 nM", "result": "− (less than 20% inhibition)"}, {"measurement": "CK1a 1 kinase inhibition", "setting": "[9]; 5 nM", "result": "− (less than 20% inhibition)"}, {"measurement": "CK1a 1 kinase inhibition", "setting": "[9]; 50 nM", "result": "− (less than 20% inhibition)"}, {"measurement": "CK1a 1 kinase inhibition", "setting": "[9]; 1000 nM", "result": "− (less than 20% inhibition)"}, {"measurement": "SYK kinase inhibition", "setting": "[10]; 5 nM", "result": "− (less than 20% inhibition)"}, {"measurement": "SYK kinase inhibition", "setting": "[10]; 50 nM", "result": "− (less than 20% inhibition)"}, {"measurement": "SYK kinase inhibition", "setting": "[10]; 1000 nM", "result": "− (less than 20% inhibition)"}]}
